Data published in publication PMC7401714 (Japanese Journal of Clinical Oncology, 2020).

Columns and labels:
Phase I = format: in vivo, human; conditions: for T lag / Tmax: median, [range]; for Tmax: human, in vivo, T max
[1] = test system: Japanese patients with advanced solid tumors; test: Phase I dose escalation; conditions: for Patients with TEAE leading to death: primary reason for death was disease progression
advanced solid tumors = test: Phase I; format: in vivo, human; conditions: for PFS, single patient: 500 mg once daily
[2] = test system: patients with advanced solid tumors; conditions: first-in-man trial outside of Japan; cited from earlier work

CN1CCC(COc2cnc(-c3cccc(Cn4nc(-c5cccc(C#N)c5)ccc4=O)c3)nc2)CC1 [Tepotinib]
Caverage at steady state, all patients (Phase I; 500 mg once daily): > 700 ng/mL | T lag (Phase I; Day 1, 215 mg once daily (n = 3)): 1.95 [1.95–1.97] h | T lag (Phase I; Day 1, 300 mg once daily (n = 3)): 0.97 [0.97–2.00] h | T lag (Phase I; Day 1, 500 mg once daily (n = 6)): 0.99 [0.47–1.98] h | dose proportionality of exposure (Cmax, AUC0–t) (Phase I; after the first and multiple oral doses, 215–500 mg): less than dose proportional | Tmax (Phase I; 215 mg, Day 1, 215 mg once daily (n = 3)): 8 h | Tmax (Phase I; 215 mg, Day 14, 215 mg once daily (n = 3)): 8 h | Tmax (Phase I; 300 mg, Day 1, 300 mg once daily (n = 3)): 8 h | Tmax (Phase I; 300 mg, Day 14, 300 mg once daily (n = 3)): 9.9 h | Tmax (Phase I; 500 mg, Day 1, 500 mg once daily (n = 6)): 10 h | Tmax (Phase I; 500 mg, Day 14, 500 mg once daily (n = 5)): 4.1 h | trough concentrations between cycles 1 and 4 (Phase I; individual patients): remained stable | Patients with TEAE leading to treatment discontinuation ([1]; 215 mg once daily (n = 3)): 0 n (%) | Patients with any TEAE ([1]; 215 mg once daily (n = 3)): 2 n (%) | Patients with any grade ≥3 TEAE ([1]; 215 mg once daily (n = 3)): 0 n (%) | Patients with any related grade ≥3 TEAE ([1]; 215 mg once daily (n = 3)): 0 n (%) | Patients with any related serious TEAE ([1]; 215 mg once daily (n = 3)): 0 n (%) | Patients with any serious TEAE ([1]; 215 mg once daily (n = 3)): 0 n (%) | Patients with any treatment-related TEAE ([1]; 215 mg once daily (n = 3)): 1 n (%) | Patients with related TEAE leading to death ([1]; 215 mg once daily (n = 3)): 0 n (%) | Patients with related TEAE of special interest (lipase or amylase elevation of grade ≥3) ([1]; 215 mg once daily (n = 3)): 0 n (%) | Tepotinib-related TEAE, Grade 3/4: Hyponatremia (grade 3) ([1]; 215 mg once daily (n = 3)): 0 n (%) | Tepotinib-related TEAE, Grade 3/4: Lipase increase (grade 4) ([1]; 215 mg once daily (n = 3)): 0 n (%) | Tepotinib-related TEAE, any grade: Acneiform dermatitis ([1]; 215 mg once daily (n = 3)): 0 n (%) | Tepotinib-related TEAE, any grade: Amylase increase ([1]; 215 mg once daily (n = 3)): 0 n (%) | Tepotinib-related TEAE, any grade: Decreased appetite ([1]; 215 mg once daily (n = 3)): 1 n (%) | Tepotinib-related TEAE, any grade: Dysgeusia ([1]; 215 mg once daily (n = 3)): 1 n (%) | Tepotinib-related TEAE, any grade: Fatigue ([1]; 215 mg once daily (n = 3)): 1 n (%) | Tepotinib-related TEAE, any grade: Hypoalbuminemia ([1]; 215 mg once daily (n = 3)): 0 n (%) | Tepotinib-related TEAE, any grade: Hyponatremia ([1]; 215 mg once daily (n = 3)): 0 n (%) | Tepotinib-related TEAE, any grade: Lipase increase ([1]; 215 mg once daily (n = 3)): 0 n (%) | Tepotinib-related TEAE, any grade: Nausea ([1]; 215 mg once daily (n = 3)): 0 n (%) | Tepotinib-related TEAE, any grade: Serum creatinine increase ([1]; 215 mg once daily (n = 3)): 0 n (%) | Tepotinib-related TEAE, any grade: Stomatitis ([1]; 215 mg once daily (n = 3)): 0 n (%) | Tepotinib-related TEAE, any grade: Vomiting ([1]; 215 mg once daily (n = 3)): 0 n (%) | Patients with TEAE leading to death ([1]; 215 mg once daily (n = 3)): 0 n (%) | Patients with TEAE leading to treatment discontinuation ([1]; 300 mg once daily (n = 3)): 0 n (%) | Patients with any TEAE ([1]; 300 mg once daily (n = 3)): 3 n (%) | Patients with any grade ≥3 TEAE ([1]; 300 mg once daily (n = 3)): 3 n (%) | Patients with any related grade ≥3 TEAE ([1]; 300 mg once daily (n = 3)): 0 n (%) | Patients with any related serious TEAE ([1]; 300 mg once daily (n = 3)): 0 n (%) | Patients with any serious TEAE ([1]; 300 mg once daily (n = 3)): 3 n (%) | Patients with any treatment-related TEAE ([1]; 300 mg once daily (n = 3)): 1 n (%) | Patients with related TEAE leading to death ([1]; 300 mg once daily (n = 3)): 0 n (%) | Patients with related TEAE of special interest (lipase or amylase elevation of grade ≥3) ([1]; 300 mg once daily (n = 3)): 0 n (%) | Tepotinib-related TEAE, Grade 3/4: Hyponatremia (grade 3) ([1]; 300 mg once daily (n = 3)): 0 n (%) | Tepotinib-related TEAE, Grade 3/4: Lipase increase (grade 4) ([1]; 300 mg once daily (n = 3)): 0 n (%) | Tepotinib-related TEAE, any grade: Acneiform dermatitis ([1]; 300 mg once daily (n = 3)): 0 n (%) | Tepotinib-related TEAE, any grade: Amylase increase ([1]; 300 mg once daily (n = 3)): 0 n (%) | Tepotinib-related TEAE, any grade: Decreased appetite ([1]; 300 mg once daily (n = 3)): 0 n (%) | Tepotinib-related TEAE, any grade: Dysgeusia ([1]; 300 mg once daily (n = 3)): 0 n (%) | Tepotinib-related TEAE, any grade: Fatigue ([1]; 300 mg once daily (n = 3)): 1 n (%) | Tepotinib-related TEAE, any grade: Hypoalbuminemia ([1]; 300 mg once daily (n = 3)): 0 n (%) | Tepotinib-related TEAE, any grade: Hyponatremia ([1]; 300 mg once daily (n = 3)): 0 n (%) | Tepotinib-related TEAE, any grade: Lipase increase ([1]; 300 mg once daily (n = 3)): 0 n (%) | Tepotinib-related TEAE, any grade: Nausea ([1]; 300 mg once daily (n = 3)): 0 n (%) | Tepotinib-related TEAE, any grade: Serum creatinine increase ([1]; 300 mg once daily (n = 3)): 0 n (%) | Tepotinib-related TEAE, any grade: Stomatitis ([1]; 300 mg once daily (n = 3)): 0 n (%) | Tepotinib-related TEAE, any grade: Vomiting ([1]; 300 mg once daily (n = 3)): 0 n (%) | Patients with TEAE leading to death ([1]; 300 mg once daily (n = 3)): 0 n (%) | Patients with TEAE leading to treatment discontinuation ([1]; 500 mg once daily (n = 6)): 0 n (%) | Patients with any TEAE ([1]; 500 mg once daily (n = 6)): 6 n (%) | Patients with any grade ≥3 TEAE ([1]; 500 mg once daily (n = 6)): 4 n (%) | Patients with any related grade ≥3 TEAE ([1]; 500 mg once daily (n = 6)): 3 n (%) | Patients with any related serious TEAE ([1]; 500 mg once daily (n = 6)): 0 n (%) | Patients with any serious TEAE ([1]; 500 mg once daily (n = 6)): 1 n (%) | Patients with any treatment-related TEAE ([1]; 500 mg once daily (n = 6)): 3 n (%) | Patients with related TEAE leading to death ([1]; 500 mg once daily (n = 6)): 0 n (%) | Patients with related TEAE of special interest (lipase or amylase elevation of grade ≥3) ([1]; 500 mg once daily (n = 6)): 2 n (%) | Tepotinib-related TEAE, Grade 3/4: Hyponatremia (grade 3) ([1]; 500 mg once daily (n = 6)): 1 n (%) | Tepotinib-related TEAE, Grade 3/4: Lipase increase (grade 4) ([1]; 500 mg once daily (n = 6)): 2 n (%) | Tepotinib-related TEAE, any grade: Acneiform dermatitis ([1]; 500 mg once daily (n = 6)): 1 n (%) | Tepotinib-related TEAE, any grade: Amylase increase ([1]; 500 mg once daily (n = 6)): 2 n (%) | Tepotinib-related TEAE, any grade: Decreased appetite ([1]; 500 mg once daily (n = 6)): 0 n (%) | Tepotinib-related TEAE, any grade: Dysgeusia ([1]; 500 mg once daily (n = 6)): 1 n (%) | Tepotinib-related TEAE, any grade: Fatigue ([1]; 500 mg once daily (n = 6)): 0 n (%) | Tepotinib-related TEAE, any grade: Hypoalbuminemia ([1]; 500 mg once daily (n = 6)): 2 n (%) | Tepotinib-related TEAE, any grade: Hyponatremia ([1]; 500 mg once daily (n = 6)): 1 n (%) | Tepotinib-related TEAE, any grade: Lipase increase ([1]; 500 mg once daily (n = 6)): 2 n (%) | Tepotinib-related TEAE, any grade: Nausea ([1]; 500 mg once daily (n = 6)): 1 n (%) | Tepotinib-related TEAE, any grade: Serum creatinine increase ([1]; 500 mg once daily (n = 6)): 1 n (%) | Tepotinib-related TEAE, any grade: Stomatitis ([1]; 500 mg once daily (n = 6)): 1 n (%) | Tepotinib-related TEAE, any grade: Vomiting ([1]; 500 mg once daily (n = 6)): 1 n (%) | Patients with TEAE leading to death ([1]; 500 mg once daily (n = 6)): 1 n (%) | dose-limiting toxicities (DLTs) ([1]; 215, 300 and 500 mg once daily, cycle 1): No DLTs | Patients with TEAE leading to treatment discontinuation ([1]; Total, all doses (n = 12)): 0 n (%) | Patients with any TEAE ([1]; Total, all doses (n = 12)): 11 (91.7) n (%) | Patients with any grade ≥3 TEAE ([1]; Total, all doses (n = 12)): 7 (58.3) n (%) | Patients with any related grade ≥3 TEAE ([1]; Total, all doses (n = 12)): 3 (25.0) n (%) | Patients with any related serious TEAE ([1]; Total, all doses (n = 12)): 0 n (%) | Patients with any serious TEAE ([1]; Total, all doses (n = 12)): 4 (33.3) n (%) | Patients with any treatment-related TEAE ([1]; Total, all doses (n = 12)): 5 (41.7) n (%) | Patients with related TEAE leading to death ([1]; Total, all doses (n = 12)): 0 n (%) | Patients with related TEAE of special interest (lipase or amylase elevation of grade ≥3) ([1]; Total, all doses (n = 12)): 2 (16.7) n (%) | Tepotinib-related TEAE, Grade 3/4: Hyponatremia (grade 3) ([1]; Total, all doses (n = 12)): 1 (8.3) n (%) | Tepotinib-related TEAE, Grade 3/4: Lipase increase (grade 4) ([1]; Total, all doses (n = 12)): 2 (16.7) n (%) | Tepotinib-related TEAE, any grade: Acneiform dermatitis ([1]; Total, all doses (n = 12)): 1 (8.3) n (%) | Tepotinib-related TEAE, any grade: Amylase increase ([1]; Total, all doses (n = 12)): 2 (16.7) n (%) | Tepotinib-related TEAE, any grade: Decreased appetite ([1]; Total, all doses (n = 12)): 1 (8.3) n (%) | Tepotinib-related TEAE, any grade: Dysgeusia ([1]; Total, all doses (n = 12)): 2 (16.7) n (%) | Tepotinib-related TEAE, any grade: Fatigue ([1]; Total, all doses (n = 12)): 2 (16.7) n (%) | Tepotinib-related TEAE, any grade: Hypoalbuminemia ([1]; Total, all doses (n = 12)): 2 (16.7) n (%) | Tepotinib-related TEAE, any grade: Hyponatremia ([1]; Total, all doses (n = 12)): 1 (8.3) n (%) | Tepotinib-related TEAE, any grade: Lipase increase ([1]; Total, all doses (n = 12)): 2 (16.7) n (%) | Tepotinib-related TEAE, any grade: Nausea ([1]; Total, all doses (n = 12)): 1 (8.3) n (%) | Tepotinib-related TEAE, any grade: Serum creatinine increase ([1]; Total, all doses (n = 12)): 1 (8.3) n (%) | Tepotinib-related TEAE, any grade: Stomatitis ([1]; Total, all doses (n = 12)): 1 (8.3) n (%) | Tepotinib-related TEAE, any grade: Vomiting ([1]; Total, all doses (n = 12)): 1 (8.3) n (%) | Patients with TEAE leading to death ([1]; Total, all doses (n = 12)): 1 (8.3) n (%) | vital signs and other safety observations ([1]; all doses): No clinically relevant abnormalities | patients with tepotinib-related TEAEs of any grade ([1]; all doses (n = 12)): 41.7% | median PFS (advanced solid tumors; all patients (n = 12), 90% CI): 1.38 (90% CI: 1.15–1.38) months | patients with BOR of disease progression (advanced solid tumors; nine of 12 patients overall): 75% | patients with BOR of stable disease (SD) ≥12 weeks (advanced solid tumors; of 12 patients, both treated with 500 mg once daily): 16.7% | PFS, single patient (advanced solid tumors; patient with urachal cancer (MET status not evaluable)): 12.9 months | PFS, single patient (advanced solid tumors; patient, MET-expressing (IHC 2+) gastric cancer, four prior lines of chemotherapy): 4.6 months | dose up to which monotherapy was generally well tolerated [2]: ≤ 1400 mg once daily | maximum tolerated dose (MTD) [2]: could not be established
